Results as given in patent publication US6599541B1, “Composition for treatment of drug resistant bacterial infections and a method of treating drug resistant bacterial infections” (priority 1999, dated 2003).
Converted amounts (≈) assume the structure as drawn. Read-outs that look alike come from different tables or passages of the source.

Experiments:
Enterobacter spp. [1] = experiment: Broth Macro Dilution Test, MIC and MBC; assay type: cell-based; details: antibiotic alone
Description: (§1) This was done by estimation of the Minimum Inhibitory Concentration (MIC) and Minimum Bactericidal Concentration (MBC) on the selected isolates by a Broth Macro Dilution Test.
(§2) While conducting these tests, the guidelines given by the National committee of Clinical Laboratory Standards 1995 protocols were employed. Cation Supplemented Mueller Hinton Broth was used as medium for all organisms excepting for β haemolytic streptococci for which, Todd Hewit's Broth was used as medium.
(§3) The following concentrations of antibiotics were tested to determine MIC and MBC.
(§4) A minimum inhibitory concentration is the lowest level of antibiotic needed to cause an inhibition to bacterial growth in culture medium whereas, the minimum bactericidal concentration is the lowest concentration of antibiotic to achieve a 100% killing of bacteria. Thus, these two values are the practical indices of intensity of bacterial resistance to a given antibiotic. On the other hand, a break-even point of any antibiotic indicates the attainable blood levels after an administration of full dose, in human/animal body. Thus, this point indicates the practical dosage of administering any given antibiotic effectively and beyond this point, even if an antibiotic is found to act effectively in experimental situation—such dose cannot be administered in a clinical situation.

Escherichia coli [2] = experiment: Broth Macro Dilution Test, MIC and MBC; assay type: cell-based; details: resistant to Ciprofloxacin, antibiotic alone, read-out: minimum bactericidal concentration (MBC)
Description: as §1, §2, §3, §4

Salmonella senftenberg [3] = experiment: Broth Macro Dilution Test, MIC and MBC; assay type: cell-based; details: Salmonella enterica, Example 13: strain from burn wound swab culture, antibiotic alone
Description: as §1, §2, §3
(§5) Co-trimoxazole (Sulpharnethoxazole/Trimethoprim/μg/μg per ml)
as §4

Klebsiella pneumoniae [4] = experiment: Broth Macro Dilution Test, MIC and MBC; assay type: cell-based; details: Klebsiella pneumoniae, antibiotic alone
Description: as §1, §2, §3, §5, §4

Staphylococcus aureus [5] = experiment: Broth Macro Dilution Test, MIC and MBC; assay type: cell-based; details: Example 12: strain from non-healing burn wound swab culture, antibiotic alone
Protocol: as §1
(§6) Cation Supplemented Mueller Hinton Broth was used as medium for all organisms excepting for β haemolytic streptococci for which, Todd Hewit's Broth was used as medium.
as §3, §4

[6] = highest serum concentration reached after the maximum therapeutic dose in-vivo; cited from earlier work
Enterobacter spp. [7] = experiment: Broth tube test of NE with antibiotic at break point, percentage of killing; assay type: cell-based; details: for bacterial growth in control tubes: NE and antibiotic added individually; for bactericidal effect: antibiotic 4 μg/ml (break point) combined with NE 125, 250, 500, 1000 μg/ml
Protocol: (§7) Since all the study isolates are resistant to the concerned antibiotics, each antibiotic is taken at its breakpoint concentration, (the highest serum concentration of that particular antibiotic reached after the maximum therapeutic dose in-vivo). The break points for various antibiotics are as follows:
(§8) Preparation of Neem Extract: Stock solution of neem extract (1 mg/ml) was prepared, filtered and autoclaved. It was used in 4 concentrations—1000 μg/ml; 500 μg/ml; 250 μg/ml; 125 μg/ml.
(§9) A set of four tubes with variable concentrations of the extract is prepared and to each of these tubes, the break point concentration of antibiotics is added. Now, these sets are inoculated with the study isolate in the same manner as per the broth dilution procedure. A set of six controls is inoculated with each isolate—in parallel with the main experiment.
(§10) 2. Only antibiotic solution
(§11) 3. Medium and antibiotic solution with inoculum
(§12) 5. Only Neem extract at 250 μg/ml
(§13) 6. Medium with Neem Extract and inoculum
(§14) Reading the test All the tests and control tubes are observed for visible turbidity of growth first. Since all the study isolates were earlier confirmed to be resistant to the antibiotics, the bacterial growth is expected at the breakpoint concentration of the antibiotic. Any reduction in the turbidity as compared to the control tube no. 3 is noted as a possible additive or synergistic effect of the neem extract with the antibiotic. In absence of such effect, the tubes may show growth matching with the control no. 4.
(§15) In case of a positive result, further sub-culturing was taken up, on solid media for colony counts with a calibrated loop. The colony counts could be noted by a semi quantitative method as 101 to 10^5 CFU/ml (Colony forming units). This is finally expressed as the percentage of killing as compared to the colony count obtained with control no. 4. Usually control tubes no. 3, 4 and 6 had similar colony counts.

Salmonella senftenberg [8] = experiment: as above; assay type: cell-based; details: Example 13 strain
Protocol: as §7, §8, §9, §10, §11, §12, §13, §14, §15

Klebsiella pneumoniae [9] = experiment: as above; assay type: cell-based; details: for bacterial growth in control tubes: NE and antibiotic added individually
Protocol: as §7, §8, §9, §10, §11, §12, §13, §14, §15

Staphylococcus aureus [10] = experiment: as above; assay type: cell-based; details: Example 12 strain
Protocol: as §7, §8, §9, §10, §11, §12, §13, §14, §15

Escherichia coli [11] = experiment: as above; assay type: cell-based; details: for bacterial growth in control tubes: NE and antibiotic added individually; for bactericidal effect: antibiotic 4 μg/ml (break point) combined with NE 125, 250, 500, 1000 μg/ml
Protocol: as §7, §8, §9, §10, §11, §12, §13, §14, §15

Staphylococcus aureus [12] = experiment: Agar Dilution Method of Sensitivity testing, NE alone and NE + antibiotic; assay type: cell-based; details: for Growth Patterns after addition of NE: no. of cultures +++ (growth) / Growth Patterns after addition of NE: no. of cultures −−− (inhibition of growth): resistant S. aureus cultures, 48 hours
Protocol: Two kinds of investigations were carried-out using these bacterial isolates—using an Agar Dilution Method of Sensitivity testing.
i) To ascertain whether, NE can work as an antibacterial substance on its own. For this purpose, a stock-solution of NE was prepared and was sterilized as described in the preliminary experiments.
ii) This stock-solution was dispensed into the culture medium (Mueller Hinton Agar) so as to provide while; the medium was in liquid form. Four different concentrations of NE, viz.
iii) This medium was poured into petri dishes and allowed to solidify. Resistant cultures were inoculated on to these plates and after incubation for 48 hours, the growth patterns were assessed.
iv) The experiments were run in triplicate, for each concentration—as per standard practices of microbiological testing procedures.
i) The culture medium (Mueller Hinton Agar) was melted and distributed into a number of test tubes.
ii) The stock solution of NE was dispensed into these test tubes in four different concentrations viz.
iii) In the same medium, one of the antibiotics under investigation was also added so as to provide a variable concentration (at break-even point concentration) as described below:
iv) The culture medium containing NE extract+the antibiotic were poured into petri dishes and allowed to solidify.
v) The resistant bacterial strains were inoculated onto these plates, incubated for 48 hours and the growth patterns were studied on each plate.
These cultures were obtained various clinical samples, such as sputum, non-healing infected wounds, throat swabs etc.

[13] = system: β-haemolytic streptococci; experiment: Broth Macro Dilution Test, MIC and MBC; assay type: cell-based; details: antibiotic alone, read-out: minimum inhibitory concentration (MIC)
Protocol: as §1, §6, §3, §4

[14] = system: β-haemolytic streptococci; experiment: Broth tube test of NE with antibiotic at break point, percentage of killing; assay type: cell-based; details: for bacterial growth in control tubes: NE and antibiotic added individually
Protocol: as §7, §8, §9, §10, §11, §12, §13, §14, §15

[15] = Example 11: isolate from Endotracheal catheter tip culture
[16] = antibiotic at break-even point + NE 125 μg/mL
[17] = antibiotic at break-even point + NE 250 μg/mL
[18] = antibiotic at break-even point + NE 500 μg/mL
[19] = antibiotic at break-even point + NE 1000 μg/mL

O=C(O)c1cn(C2CC2)c2cc(N3CCNCC3)c(F)cc2c1=O [Ciprofloxacin]
MBC (Enterobacter spp. [1]; Enterobacter, Example 10: isolate from Endotracheal Catheter Tip culture, read-out: minimum bactericidal concentration (MBC)): > 128 µg/mL
MIC (Enterobacter spp. [1]; Enterobacter, Example 10: isolate from Endotracheal Catheter Tip culture, read-out: minimum inhibitory concentration (MIC)): 32 µg/mL (≈ 96.6 µM)
minimum bactericidal concentration (MBC) (Enterobacter spp. [1]; [15]): > 128 µg/mL
minimum inhibitory concentration (MIC) (Enterobacter spp. [1]; [15]): 32 µg/mL (≈ 96.6 µM)
MBC (Escherichia coli [2]; Example 1: isolate from wound infection): 64 µg/mL (≈ 193 µM)
MBC (Escherichia coli [2]; Example 2: isolate from endotracheal catheter tip culture): > 128 µg/mL
MBC (Salmonella senftenberg [3]; read-out: MBC): > 128 µg/mL
MIC (Salmonella senftenberg [3]; read-out: MIC): 32 µg/mL (≈ 96.6 µM)
MBC (Klebsiella pneumoniae [4]; Example 3: strain from non-healing burn wound, read-out: MBC): > 64 µg/mL
MIC (Klebsiella pneumoniae [4]; Example 3: strain from non-healing burn wound, read-out: MIC): 16 µg/mL (≈ 48.3 µM)
MBC (Klebsiella pneumoniae [4]; Example 4: strain from wound swab culture, read-out: MBC): > 128 µg/mL
MIC (Klebsiella pneumoniae [4]; Example 4: strain from wound swab culture, read-out: MIC): 32 µg/mL (≈ 96.6 µM)
MBC (Klebsiella pneumoniae [4]; Example 5: isolate from Endotracheal Catheter Tip culture, read-out: minimum bactericidal concentration (MBC)): > 128 µg/mL
MIC (Klebsiella pneumoniae [4]; Example 5: isolate from Endotracheal Catheter Tip culture, read-out: minimum inhibitory concentration (MIC)): 32 µg/mL (≈ 96.6 µM)
MBC (Klebsiella pneumoniae [4]; Example 6: isolate from Endotracheal Catheter tip culture, read-out: minimum bactericidal concentration (MBC)): > 128 µg/mL
MIC (Klebsiella pneumoniae [4]; Example 6: isolate from Endotracheal Catheter tip culture, read-out: minimum inhibitory concentration (MIC)): 32 µg/mL (≈ 96.6 µM)
MBC (Klebsiella pneumoniae [4]; Example 7: isolate from endotracheal catheter tip culture, read-out: minimum bactericidal concentration (MBC)): > 128 µg/mL
MIC (Klebsiella pneumoniae [4]; Example 7: isolate from endotracheal catheter tip culture, read-out: minimum inhibitory concentration (MIC)): 32 µg/mL (≈ 96.6 µM)
MBC (Staphylococcus aureus [5]): > 128 µg/mL
MIC (Staphylococcus aureus [5]): 32 µg/mL (≈ 96.6 µM)
break point [6]: 4 µg/mL
bacterial growth in control tubes (Enterobacter spp. [7]; Example 10 isolate): unhindered
bactericidal effect (Enterobacter spp. [7]; Example 10 isolate): 80%
bacterial growth in control tubes (Enterobacter spp. [7]; Example 11 isolate): unhindered
bactericidal effect (Enterobacter spp. [7]; Example 11 isolate): 50%
killing (Salmonella senftenberg [8]; antibiotic added to 1000 μg/ml NE): 50%
killing effect (Salmonella senftenberg [8]; antibiotic with 500 μg/ml NE): somewhat low
killing effect (Salmonella senftenberg [8]; antibiotic with NE at other concentrations (below 500 μg/ml)): not found
killing (Klebsiella pneumoniae [9]; Example 3 strain, antibiotic at break point in combination with NE, uniform at 1000, 500, 250, 125 μg/ml): 99%
killing (Klebsiella pneumoniae [9]; Example 4 strain, antibiotic at break-even concentration with NE, uniform at all four NE concentrations): 90%
bacterial growth in control tubes (Klebsiella pneumoniae [9]; Example 5 isolate): unhindered
bactericidal effect (Klebsiella pneumoniae [9]; Example 5 isolate, antibiotic 4 μg/ml (break-even point) combined with NE 125, 250, 500, 1000 μg/ml): 90%
bacterial growth in control tubes (Klebsiella pneumoniae [9]; Example 6 isolate): unhindered
bactericidal effect (Klebsiella pneumoniae [9]; Example 6 isolate, antibiotic 4 μg/ml (break point) combined with NE 125, 250, 500, 1000 μg/ml): 80%
bacterial growth in control tubes (Klebsiella pneumoniae [9]; Example 7 isolate): unhindered
bactericidal effect (Klebsiella pneumoniae [9]; Example 7 isolate, antibiotic 4 μg/ml (break point) combined with NE 125, 250, 500, 1000 μg/ml): 50%
killing (Staphylococcus aureus [10]; antibiotic 4 μg/ml in combination with 250 μg/ml and 125 μg/ml NE): 80%
bactericidal effect (Staphylococcus aureus [10]; antibiotic 4 μg/ml with 1000 μg/ml, 500 μg/ml of NE): 20%
bacterial growth in control tubes (Escherichia coli [11]; Example 1 isolate): unhindered
bactericidal effect (Escherichia coli [11]; Example 1 isolate): 100%
bacterial growth in control tubes (Escherichia coli [11]; Example 2 isolate): unhindered
bactericidal effect (Escherichia coli [11]; Example 2 isolate): 40%

CC[C@H]1OC(=O)[C@H](C)[C@@H](O[C@H]2C[C@@](C)(OC)[C@@H](O)[C@H](C)O2)[C@H](C)[C@@H](O[C@@H]2O[C@H](C)C[C@H](N(C)C)[C@H]2O)[C@](C)(O)C[C@@H](C)C(=O)[C@H](C)[C@@H](O)[C@]1(C)O [Erythromycin]
clinical strains sensitized by NE to the antibiotic (Staphylococcus aureus [12]; 102 resistant S. aureus cultures, NE + antibiotic): 50%
Growth Patterns after addition of NE: no. of cultures +++ (growth) (Staphylococcus aureus [12]; [16]): 72
Growth Patterns after addition of NE: no. of cultures −−− (inhibition of growth) (Staphylococcus aureus [12]; [16]): 30
Growth Patterns after addition of NE: no. of cultures +++ (growth) (Staphylococcus aureus [12]; [17]): 66
Growth Patterns after addition of NE: no. of cultures −−− (inhibition of growth) (Staphylococcus aureus [12]; [17]): 36
Growth Patterns after addition of NE: no. of cultures +++ (growth) (Staphylococcus aureus [12]; [18]): 61
Growth Patterns after addition of NE: no. of cultures −−− (inhibition of growth) (Staphylococcus aureus [12]; [18]): 41
Growth Patterns after addition of NE: no. of cultures +++ (growth) (Staphylococcus aureus [12]; [19]): 51
Growth Patterns after addition of NE: no. of cultures −−− (inhibition of growth) (Staphylococcus aureus [12]; [19]): 51
MIC ([13]; Example 8: isolate from throat swab culture): 64 µg/mL (≈ 87.2 µM)
MIC ([13]; Example 9: isolate from sputum culture): 32 µg/mL (≈ 43.6 µM)
MBC (Staphylococcus aureus [5]): > 256 µg/mL
break point [6]: 4 µg/mL
bacterial growth in control tubes ([14]; Example 8 isolate): unhindered
bactericidal effect ([14]; Example 8 isolate, antibiotic 4 μg/ml combined with NE 1000 μg/ml): 99%
bactericidal effect ([14]; Example 8 isolate, antibiotic 4 μg/ml combined with NE 125, 250 and 500 μg/ml): 100%
bacterial growth in control tubes ([14]; Example 9 isolate): unhindered
bactericidal effect ([14]; Example 9 isolate, antibiotic at break even point combined with NE 250 μg/ml and 125 μg/ml): 99%
killing ([14]; Example 9 isolate, antibiotic at break-even point combined with NE 500 μg/ml or 1000 μg/ml): 50%
